Patent publication US20090111798A1, “5,6-DIHYDRO-1H-PYRIDIN-2-ONE COMPOUNDS” (priority 2006, published 2009)
Where a name gives a salt, the structure may show the parent alone.

Molecular target: NS5B polymerase (Hepatitis C virus genotype 1b, UniProt P26663)
Test: biochemical
Details: NS5B polymerase inhibition; 20 nM enzyme, 75 min at 28° C.
Summary of the method: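 20 nM enzyme with 250 nM biotinylated oligo(rG13)/poly rC, 0.6 μM GTP plus [α-33P]GTP, in pH 7.5 Tris buffer with 5 mM MgCl2, 75 min at 28 °C. Incorporated radioactivity counted on streptavidin plates; IC50 from 4-parameter fit versus uninhibited control.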

Chain of NS5B polymerase (P26663 2420-3010): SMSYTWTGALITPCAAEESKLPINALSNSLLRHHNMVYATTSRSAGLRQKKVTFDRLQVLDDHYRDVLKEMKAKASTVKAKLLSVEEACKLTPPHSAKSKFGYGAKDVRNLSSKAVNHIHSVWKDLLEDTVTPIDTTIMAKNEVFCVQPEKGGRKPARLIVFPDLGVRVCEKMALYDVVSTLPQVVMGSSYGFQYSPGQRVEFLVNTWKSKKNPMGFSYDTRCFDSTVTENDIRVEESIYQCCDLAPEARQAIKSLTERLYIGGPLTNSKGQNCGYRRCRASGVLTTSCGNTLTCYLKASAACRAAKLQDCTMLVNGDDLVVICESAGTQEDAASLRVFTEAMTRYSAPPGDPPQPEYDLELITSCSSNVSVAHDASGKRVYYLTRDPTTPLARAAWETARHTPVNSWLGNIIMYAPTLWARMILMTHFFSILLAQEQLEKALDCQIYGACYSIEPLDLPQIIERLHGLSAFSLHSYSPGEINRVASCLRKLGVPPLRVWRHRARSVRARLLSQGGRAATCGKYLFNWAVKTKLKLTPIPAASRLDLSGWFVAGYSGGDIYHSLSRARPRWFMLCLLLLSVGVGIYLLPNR

Structure (SMILES) | IC50 [nM]
O=C1C(C2=NS(=O)(=O)c3cc(I)ccc3N2)=C(O)[C@@H]2CCC[C@@H]2N1Cc1ccc(F)cc1 [Example 39, (4aR,7aS)-1-(4-Fluoro-benzyl)-4-hydroxy-3-(7-iodo-1,1-dioxo-1,4-dihydro-1λ^6-benzo[1,2,4]thiadiazin-3-yl)-1,4-a,5,6,7,7a-hexahydro-[1]pyrindin-2-one] | 1000 to 100000
O=C1C(C2=NS(=O)(=O)c3cc(NS(=O)(=O)c4ccccc4)ccc3N2)=C(O)[C@@H]2CCC[C@@H]2N1Cc1ccc(F)cc1 [Example 40, (4aR,7aS)—N-{3-[1-(4-Fluoro-benzyl)-4-hydroxy-2-oxo-2,4-a,5,6,7,7a-hexahydro-1H-[1]pyrindin-3-yl]-1,1-dioxo-1,4-dihydro-1λ^6-benzo[1,2,4]thiadiazin-7-yl]-benzenesulfonamide] | 20 to 100
O=C1C(C2=NS(=O)(=O)c3cc(N4CCCCC4)ccc3N2)=C(O)[C@@H]2CCC[C@@H]2N1Cc1ccc(F)cc1 [Example 42, (4aR,7aS)-3-(1,1-Dioxo-7-piperidin-1-yl-1,4-dihydro-1λ^6-benzo[1,2,4]thiadiazin-3-yl)-1-(4-fluoro-benzyl)-4-hydroxy-1,4-a,5,6,7,7a-hexahydro-[1]pyrindin-2-one] | 1000 to 100000
O=C1C(C2=NS(=O)(=O)c3cc(C4=CCCS4(=O)=O)ccc3N2)=C(O)[C@@H]2CCC[C@@H]2N1Cc1ccc(F)cc1 [Example 44, (4aR,7aS)-3-[7-(1,1-Dioxo-4,5-dihydro-1H-1λ^6-thiophen-2-yl)-1,1-dioxo-1,4-dihydro-1λ^6-benzo[1,2,4]thiadiazin-3-yl]-1-(4-fluoro-benzyl)-4-hydroxy-1,4a,5,6,7,7a-hexahydro-[1]pyrindin-2-one] | 100 to 1000
O=C1C(C2=NS(=O)(=O)c3cc(I)ccc3N2)=C(O)C2CCCCCC2N1Cc1ccc(F)cc1 (stereo not shown) [Example 46, 1-(4-Fluoro-benzyl)-4-hydroxy-3-(7-iodo-1,1-dioxo-1,4-dihydro-1λ^6-benzo[1,2,4]thiadiazin-3-yl)-1,4-a,5,6,7,8,9,9a-octahydro-cyclohepta[b]pyridin-2-one] | 1000 to 100000
CS(=O)(=O)Nc1ccc2c(c1)S(=O)(=O)N=C(C1=C(O)C3CCCCC3N(C3CCCCC3)C1=O)N2 (stereo not shown) [Example 49, N-[3-(1-Cyclohexyl-4-hydroxy-2-oxo-1,2,4a,5,6,7,8,8a-octahydro-quinolin-3-yl)-1,1-dioxo-1,4-dihydro-1λ^6-benzo[1,2,4]thiadiazin-7-yl]-methanesulfonamide] | 100 to 1000
O=C1C(C2=NS(=O)(=O)c3cc(I)ccc3N2)=C(O)C2CCCCC2N1Cc1ccc(F)cc1 (stereo not shown) [Example 50, 1-(4-Fluoro-benzyl)-4-hydroxy-3-(7-iodo-1,1-dioxo-1,4-dihydro-1λ^6-benzo[1,2,4]thiadiazin-3-yl)-4-a,5,6,7,8,8a-hexahydro-1H-quinolin-2-one] | 1000 to 100000
O=C1C(C2=NS(=O)(=O)c3cc(NS(=O)(=O)Cc4ccccc4)ccc3N2)=C(O)[C@@H]2CCC[C@@H]2N1Cc1ccc(F)cc1 [Example 52, (4aR,7aS)-N-{3-[1-(4-Fluoro-benzyl)-4-hydroxy-2-oxo-2,4a,5,6,7,7a-hexahydro-1H-[1]pyrindin-3-yl]-1,1-dioxo-1,4-dihydro-1λ^6-benzo[1,2,4]thiadiazin-7-yl}-C-phenyl-methanesulfonamide] | 100 to 1000
CS(=O)(=O)Nc1ccc2c(c1)S(=O)(=O)N=C(C1=C(O)C3CCCCCC3NC1=O)N2 (stereo not shown) [Example 59, N-[3-(4-Hydroxy-2-oxo-2,4a,5,6,7,8,9,9a-octahydro-1H-cyclohepta[b]pyridin-3-yl)-1,1-dioxo-1,4-dihydro-1λ^6-benzo[1,2,4]thiadiazin-7-yl]-methanesulfonamide] | 1000 to 100000
CS(=O)(=O)Nc1ccc2c(c1)S(=O)(=O)N=C(C1=C(O)C3CCCCCC3N(NC3CCC3)C1=O)N2 (stereo not shown) [Example 60, N-[3-(1-Cyclobutylamino-4-hydroxy-2-oxo-2,4a,5,6,7,8,9,9a-octahydro-1H-cyclohepta[b]pyridin-3-yl)-1,1-dioxo-1,4-dihydro-1λ^6-benzo[1,2,4]thiadiazin-7-yl]-methanesulfonamide trifluoroaceticacid salt] | 20 to 100
